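Growth conditions: 96-well plates. Treatment: test compound, 48 hours, 5 concentrations. Analysis: linear interpolation between bracketing concentrations; unreached endpoints set to highest concentration. GI50: concentration for 50% inhibition of growth.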 The source made the active and inactive calls. Cut-off read from the data, not from the text of the source: active = GI50 up to about 1.1 µM and inactive = higher. Square brackets hold non-standard residues; d marks the D form. Peptide text beside a SMILES is read from it. * marks the point of attachment. X26 = COC1=CC(=O)N(C(=O)[C@@H](O*)C(C)C)[C@H]1Cc1ccccc1; NMeL = CN[C@@H](CC(C)C)C(=O)O; Hexanoyl = CCCCCC(=O)*
Legend:
Test in all cases: NCI anticancer screen, dose series, 48 h
SK-MEL-5 = test system: SK-MEL-5
Malme-3M = test system: Malme-3M
NCI-H23 = test system: NCI-H23
DU-145 = test system: DU-145
NCI-H226 = test system: NCI-H226
EKVX = test system: EKVX
786-0 = test system: 786-0
SW-620 = test system: SW-620
HT-29 = test system: HT-29
NCI-H460 = test system: NCI-H460
NCI/ADR-RES = test system: NCI/ADR-RES
UO-31 = test system: UO-31
MCF7 = test system: MCF7
A549 = test system: A549
HCC 2998 = test system: HCC 2998
HL-60 = test system: HL-60
SN12C = test system: SN12C
LOX IMVI = test system: LOX IMVI
K562 = test system: K562

| Compound | GI50 (SK-MEL-5) | GI50 (Malme-3M) | GI50 (NCI-H23) | GI50 (DU-145) | GI50 (NCI-H226) | GI50 (EKVX) | GI50 (786-0) | GI50 (SW-620) | GI50 (HT-29) | GI50 (NCI-H460) | GI50 (NCI/ADR-RES) | GI50 (UO-31) | GI50 (MCF7) | GI50 (A549) | GI50 (HCC 2998) | GI50 (HL-60) | GI50 (SN12C) | GI50 (LOX IMVI) | GI50 (K562) |
| --- | --- | --- | --- | --- | --- | --- | --- | --- | --- | --- | --- | --- | --- | --- | --- | --- | --- | --- | --- |
| O=[N+]([O-])c1ccc2nc(-c3ccccn3)c(-c3ccccn3)nc2c1 | 24.4 µM (inactive) | 61.2 µM (inactive) | > 100 µM (inactive) | > 100 µM (inactive) | > 100 µM (inactive) | 71 µM (inactive) | > 100 µM (inactive) | 41.9 µM (inactive) | 40.5 µM (inactive) | 45.7 µM (inactive) | > 100 µM (inactive) | > 100 µM (inactive) | 57.7 µM (inactive) | 57.4 µM (inactive) | > 100 µM (inactive) | 28 µM (inactive) | > 100 µM (inactive) |  |  |
| O=c1[nH]c(=O)n(CCOCP(=O)(O)O)nc1Br | > 100 µM (inactive) | > 100 µM (inactive) | > 100 µM (inactive) | > 100 µM (inactive) | > 100 µM (inactive) | > 100 µM (inactive) |  | > 100 µM (inactive) | > 100 µM (inactive) | > 100 µM (inactive) | > 100 µM (inactive) | > 100 µM (inactive) | > 100 µM (inactive) | > 100 µM (inactive) | > 100 µM (inactive) | > 100 µM (inactive) | > 100 µM (inactive) | > 100 µM (inactive) |  |
| CCOc1ccccc1/C=C1\NC(=O)N(/C=C2\C(=O)Oc3ccccc3C2=O)C1=O | 23.9 µM (inactive) |  | 31.3 µM (inactive) | 44.5 µM (inactive) | 35.5 µM (inactive) | 51.6 µM (inactive) | 50.9 µM (inactive) | 51.5 µM (inactive) | 65.5 µM (inactive) | 39.4 µM (inactive) | 46 µM (inactive) | 23.1 µM (inactive) | 46.2 µM (inactive) | 42.6 µM (inactive) | 74 µM (inactive) | 20.5 µM (inactive) | 43.6 µM (inactive) | 63.7 µM (inactive) |  |
| CSC(SC)=C(C(=O)O)P(=O)(O)O | > 100 µM (inactive) | > 100 µM (inactive) | > 100 µM (inactive) | > 100 µM (inactive) | > 100 µM (inactive) | > 100 µM (inactive) | > 100 µM (inactive) | > 100 µM (inactive) | > 100 µM (inactive) | > 100 µM (inactive) | > 100 µM (inactive) |  | > 100 µM (inactive) | > 100 µM (inactive) | > 100 µM (inactive) | > 100 µM (inactive) | > 100 µM (inactive) | > 100 µM (inactive) |  |
| Cc1ccc2c(c1C)CC1(Cc3c(C)ccc(C)c3C1=O)C2=O (centres undefined) | > 100 µM (inactive) | > 100 µM (inactive) | > 100 µM (inactive) | > 100 µM (inactive) | > 100 µM (inactive) | > 100 µM (inactive) | > 100 µM (inactive) | > 100 µM (inactive) | > 100 µM (inactive) | > 100 µM (inactive) | > 100 µM (inactive) | > 100 µM (inactive) | > 100 µM (inactive) | > 100 µM (inactive) | > 100 µM (inactive) | > 100 µM (inactive) | > 100 µM (inactive) |  | > 100 µM (inactive) |
| COc1cc(/C=C2/C(=O)N/C(=N\C(C)=O)N2C)ccc1OC(C)=O | > 100 µM (inactive) |  | > 100 µM (inactive) | > 100 µM (inactive) | > 100 µM (inactive) | > 100 µM (inactive) | > 100 µM (inactive) | > 100 µM (inactive) | > 100 µM (inactive) | > 100 µM (inactive) | > 100 µM (inactive) | > 100 µM (inactive) | > 100 µM (inactive) | > 100 µM (inactive) | > 100 µM (inactive) | 53.3 µM (inactive) | > 100 µM (inactive) | > 100 µM (inactive) |  |
| Nc1ccccc1CC(O)C(=O)O (centres undefined) | > 100 µM (inactive) | > 100 µM (inactive) | > 100 µM (inactive) | > 100 µM (inactive) | > 100 µM (inactive) | > 100 µM (inactive) | > 100 µM (inactive) | > 100 µM (inactive) | > 100 µM (inactive) | > 100 µM (inactive) | > 100 µM (inactive) |  | > 100 µM (inactive) | > 100 µM (inactive) | > 100 µM (inactive) | > 100 µM (inactive) | > 100 µM (inactive) | > 100 µM (inactive) | > 100 µM (inactive) |
| COc1ccc(C=C2C(C)=NN(c3cccc(Cl)c3)C23C(Cl)C(=O)N3c2nc3ccccc3s2)cc1 (centres undefined) | 15.1 µM (inactive) |  | 15 µM (inactive) | 17.5 µM (inactive) | 21.4 µM (inactive) | 27.3 µM (inactive) | 16 µM (inactive) | 5.6 µM (inactive) | 9.51 µM (inactive) | 24 µM (inactive) | 20.3 µM (inactive) | 16.3 µM (inactive) | 17.5 µM (inactive) |  | 3 µM (inactive) | 2.05 µM (inactive) |  | 17.7 µM (inactive) | 22.8 µM (inactive) |
| N#Cc1c(N)n(-c2nc3ccccc3s2)c(=O)c2cc([N+](=O)[O-])ccc12 |  | 18.7 µM (inactive) | 9.38 µM (inactive) | 25.6 µM (inactive) | 6.93 µM (inactive) | 23.3 µM (inactive) | 21.7 µM (inactive) | 26.2 µM (inactive) | 3.5 µM (inactive) | 6.32 µM (inactive) | 6.46 µM (inactive) | 21.7 µM (inactive) | 7.21 µM (inactive) | 14.6 µM (inactive) | 9.44 µM (inactive) | 7.74 µM (inactive) | 23.1 µM (inactive) | 7.03 µM (inactive) | 15.7 µM (inactive) |
| O=C1Nc2ccccc2/C1=N/N=c1\cccc[nH]1 | 40.4 µM (inactive) |  | 28.2 µM (inactive) | 21 µM (inactive) | 16.1 µM (inactive) | 14.5 µM (inactive) | 12.9 µM (inactive) | > 100 µM (inactive) | 22.2 µM (inactive) | 14.6 µM (inactive) | 10.2 µM (inactive) | 12.1 µM (inactive) | 8.17 µM (inactive) | 48.8 µM (inactive) | 23.7 µM (inactive) | 16 µM (inactive) | 29.2 µM (inactive) | 28.8 µM (inactive) | 52.5 µM (inactive) |
| COC(=O)/C(=C(/C)c1ccco1)P(=O)(OC)OC | > 100 µM (inactive) | > 100 µM (inactive) | > 100 µM (inactive) | > 100 µM (inactive) | > 100 µM (inactive) | > 100 µM (inactive) | > 100 µM (inactive) | > 100 µM (inactive) | > 100 µM (inactive) |  | > 100 µM (inactive) | 0.01 µM (active) | > 100 µM (inactive) | > 100 µM (inactive) | > 100 µM (inactive) |  | > 100 µM (inactive) | > 100 µM (inactive) |  |
| O=CNc1ccc(S(=O)(=O)c2ccc(NC=O)cc2)cc1 | > 100 µM (inactive) | > 100 µM (inactive) | > 100 µM (inactive) | > 100 µM (inactive) |  | > 100 µM (inactive) | > 100 µM (inactive) | > 100 µM (inactive) | > 100 µM (inactive) | > 100 µM (inactive) | > 100 µM (inactive) | > 100 µM (inactive) | > 100 µM (inactive) | > 100 µM (inactive) | > 100 µM (inactive) | > 100 µM (inactive) | > 100 µM (inactive) | > 100 µM (inactive) | > 100 µM (inactive) |
| [N-]=[N+]=Nc1c(-c2ccccc2)c(=O)n(-c2ccccc2)c2ccccc12 |  | 19.3 µM (inactive) | 80.5 µM (inactive) | > 100 µM (inactive) | 91.4 µM (inactive) | 17.6 µM (inactive) | > 100 µM (inactive) | > 100 µM (inactive) | 41.7 µM (inactive) | 46.5 µM (inactive) | 63 µM (inactive) | 37.3 µM (inactive) | 54.1 µM (inactive) | > 100 µM (inactive) | 35.2 µM (inactive) | > 100 µM (inactive) | 60.8 µM (inactive) | 63.2 µM (inactive) | > 100 µM (inactive) |
| [O-][Cl+3]([O-])([O-])[O-].[O-][Cl+3]([O-])([O-])[O-].c1ccn2c(N3CCCC3)[n+]3c4ccccc4n4c(N5CCCC5)[n+]5ccccc5c4c3c2c1 | 22.2 µM (inactive) | 36.2 µM (inactive) | 54.5 µM (inactive) | > 100 µM (inactive) | 0.745 µM (active) | > 100 µM (inactive) | 27.6 µM (inactive) | > 100 µM (inactive) |  | 94.4 µM (inactive) | > 100 µM (inactive) |  | 67.1 µM (inactive) | > 100 µM (inactive) | 78.3 µM (inactive) | > 100 µM (inactive) | 8 µM (inactive) | > 100 µM (inactive) | 35.8 µM (inactive) |
| CCCCCC(=O)N[C@H](C(=O)N[C@H](C(=O)N(C)[C@@H](CC(C)C)C(=O)N1CCC[C@H]1C(=O)N1CCC[C@H]1C(=O)O[C@H](C(=O)N1C(=O)C=C(OC)[C@@H]1Cc1ccccc1)C(C)C)C(C)C)C(C)C (Hexanoyl-VV[NMeL]PP-X26) |  | > 20.5 µM (inactive) | 21.2 µM (inactive) | > 43.8 µM (inactive) | > 100 µM (inactive) | > 100 µM (inactive) | > 91 µM (inactive) | > 100 µM (inactive) | > 100 µM (inactive) | > 100 µM (inactive) | > 100 µM (inactive) |  | 25.9 µM (inactive) | 18.1 µM (inactive) | > 74.3 µM (inactive) | 1.46 µM (inactive) | 35.6 µM (inactive) | > 100 µM (inactive) | 10.3 µM (inactive) |
